Reference: patent US7745120B2, “Cell culture and method for screening for a compound useful in the treatment or prevention of hepatic cirrhosis” (Industrial Technology Research Institute, priority 2004, dated 2010)
Entries after “also recorded” stand apart in the source; their conditions may differ.

Columns and labels:
Type in all cases: cell-based, human
[1] = tested on: Huh-7PALB-EGFP and immortalized HSC coculture; test: methylene blue assay of cell activity in thioacetamide-damaged co-culture; settings: interferon-α 1000, 5000, 10000 IU/ml added 3 hours before 100 mM thioacetamide; read after 24 hours; FIG. 11A
Method: Modified human HSCs and Huh-7 cells obtained from examples 1 and 6 were co-cultured via layer by layer culturing. Immortalized human HSCs were cultured in a 24-well culture plate, wherein each well was coated with extracellular matrix before use. The extracellular maxtrix used in the present example was Type I collagen or Matrigel. Six hours after the HSCs were attached, Huh-7 cells carrying albumin promoter (pLpLhyg-PAlb5/3-EGFP) (Huh-7PALB-EGFP) were subsequently cultured on the top of the attached HSCs.
One day later, 1000, 5000, 10000 IU/ml of interferon-α(F. Hoffman-La Roche, Ltd.) was added into cells respectively. Three hours later, 100 mM of thioacetamide (Sigma-Aldrich, Co.) was added to damage the cells. After 24 hours, methylene blue assay was conducted for analyzing the cell activity. In the meantime, the intensity of green fluorescence was determined by a fluorescence reader, and the result is shown in FIG. 11B.

[2] = tested on: Huh-7PALB-EGFP and immortalized HSC coculture; test: green fluorescence intensity (EGFP reporter under albumin promoter) by fluorescence reader in thioacetamide-damaged co-culture; settings: interferon-α 1000, 5000, 10000 IU/ml added 3 hours before 100 mM thioacetamide; read after 24 hours; two independent experiments, average of 3 wells; FIG. 11B
Method: The fluorescence signal expressed from transfected cells of example 5 was observed under a fluorescence microscope, and the fluorescence intensity was analyzed by image analysis software. Fluorescence intensity of EGFP was determined by a fluorescence reader and an fluorescence ELISA reader. The excitation wavelength was 488 nm, and the emission wavelength was 510 nm while the green fluorescence from the EGFP gene was detected. When the red fluorescence from DsRed gene was detected, the excitation wavelength was 558 nm, and the emission wavelength was 583 nm. A flow cytometry (for example, FACSCalibur, Becton Dickinson, Inc.) can also be used to determine the intensity of fluorescence.
Modified human HSCs and Huh-7 cells obtained from examples 1 and 6 were co-cultured via layer by layer culturing. Immortalized human HSCs were cultured in a 24-well culture plate, wherein each well was coated with extracellular matrix before use. The extracellular maxtrix used in the present example was Type I collagen or Matrigel. […]
One day later, 1000, 5000, 10000 IU/ml of interferon-α(F. Hoffman-La Roche, Ltd.) was added into cells respectively. […] In the meantime, the intensity of green fluorescence was determined by a fluorescence reader, and the result is shown in FIG. 11B.

[3] = tested on: immortalized hepatocyte THLE-2 and immortalized HSC coculture; test: methylene blue assay of cell activity in thioacetamide-damaged co-culture of normal hepatocytes and HSCs; settings: THLE-2 / HSC co-culture; interferon-α 1000, 5000, 10000 IU/ml added 3 hours before thioacetamide; read after another 24 hours; FIG. 11C
Method: To compare the cells in the present example with the normal hepatocytes and HSCs after drug treatment, immortalized human hepatocytes THLE-2 (ATCC NO: CRL-2706, normal primary hepatocytes immortalized by SV40 large T antigen gene) and untransfected human HSCs were co-cultured following procedures described as the above. After 24 hours, 1000,5000,10000 IU/ml of interferon-αwere added. Thioacetamide was applied to damage the cells after 3 hours. After another 24 hours, the cell activity was examined by methylene blue assay, and the result is shown as FIG. 11C. The result corresponds to that of the cell model for drug screening with pLpLhyg-PAlb5/3-EGFP transfected cells (FIG. 11A).

interferon-α was tested, and the “effect on damage from thioacetamide, methylene blue assay (cell activity)” value [1] was “decreased the damage from thioacetamide; also recorded: decreased cell damaged by thioacetamide”, the “effect on damage from thioacetamide, fluorescence intensity expressed by Huh-7PALB-EGFP” value [2] was “decreased the damage from thioacetamide; also recorded: decreased cell damaged by thioacetamide” and the “effect on damage from thioacetamide, methylene blue assay (cell activity)” value [3] was “decreased the damage from thioacetamide”.
